Tests used:
[1] = molecular target: T1, 5-hydroxytryptamine receptor 3A (Rattus norvegicus, UniProt P35563)
T1 sequence (P35563 whole entry): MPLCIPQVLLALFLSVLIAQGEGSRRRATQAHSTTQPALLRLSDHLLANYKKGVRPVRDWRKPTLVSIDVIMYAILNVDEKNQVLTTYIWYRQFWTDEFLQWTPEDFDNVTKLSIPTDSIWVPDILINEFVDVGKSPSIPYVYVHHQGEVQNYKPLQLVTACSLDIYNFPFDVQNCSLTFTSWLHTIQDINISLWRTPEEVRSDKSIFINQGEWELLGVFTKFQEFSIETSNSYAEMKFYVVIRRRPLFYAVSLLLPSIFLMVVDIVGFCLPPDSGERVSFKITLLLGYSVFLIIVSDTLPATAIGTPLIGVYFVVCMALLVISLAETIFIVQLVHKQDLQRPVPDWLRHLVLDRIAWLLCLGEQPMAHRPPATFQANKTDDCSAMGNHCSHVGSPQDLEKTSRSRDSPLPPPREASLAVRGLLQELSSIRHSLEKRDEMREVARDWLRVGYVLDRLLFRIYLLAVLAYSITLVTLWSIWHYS

[2] = molecular target: 5-hydroxytryptamine receptor 2A (Rattus norvegicus, UniProt P14842)
[3] = molecular target: T2, 5-hydroxytryptamine receptor 2C (Sus scrofa, UniProt G7ZKZ7)
T2 sequence (G7ZKZ7 whole entry): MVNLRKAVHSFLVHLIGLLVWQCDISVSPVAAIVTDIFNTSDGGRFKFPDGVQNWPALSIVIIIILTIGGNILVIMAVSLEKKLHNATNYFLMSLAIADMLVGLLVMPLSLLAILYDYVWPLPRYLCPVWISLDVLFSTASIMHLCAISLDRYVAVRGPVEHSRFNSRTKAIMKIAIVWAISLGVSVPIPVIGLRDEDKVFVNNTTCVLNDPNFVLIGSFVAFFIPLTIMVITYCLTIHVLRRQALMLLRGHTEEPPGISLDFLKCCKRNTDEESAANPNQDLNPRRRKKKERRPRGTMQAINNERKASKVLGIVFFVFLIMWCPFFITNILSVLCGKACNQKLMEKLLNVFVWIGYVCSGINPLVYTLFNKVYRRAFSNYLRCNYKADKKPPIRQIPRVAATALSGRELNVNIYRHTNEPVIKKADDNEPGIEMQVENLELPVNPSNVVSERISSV

[4] = molecular target: 5-hydroxytryptamine receptor 4 (Cavia porcellus, UniProt O70528)
[5] = molecular target: 5-hydroxytryptamine receptor 5A (Homo sapiens, UniProt P47898)
5-hydroxytryptamine receptor 5A, sequence (P47898 whole entry): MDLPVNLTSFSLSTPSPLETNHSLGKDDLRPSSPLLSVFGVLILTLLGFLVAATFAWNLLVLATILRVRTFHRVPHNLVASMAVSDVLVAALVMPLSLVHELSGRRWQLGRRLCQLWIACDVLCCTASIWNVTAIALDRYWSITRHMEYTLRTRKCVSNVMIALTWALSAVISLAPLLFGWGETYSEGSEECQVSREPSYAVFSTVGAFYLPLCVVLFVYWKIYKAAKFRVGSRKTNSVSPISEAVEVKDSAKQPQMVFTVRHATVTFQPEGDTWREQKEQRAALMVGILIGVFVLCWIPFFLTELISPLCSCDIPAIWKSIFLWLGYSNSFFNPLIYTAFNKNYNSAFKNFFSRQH

5-hydroxytryptamine receptor 2A, sequence (P14842 whole entry): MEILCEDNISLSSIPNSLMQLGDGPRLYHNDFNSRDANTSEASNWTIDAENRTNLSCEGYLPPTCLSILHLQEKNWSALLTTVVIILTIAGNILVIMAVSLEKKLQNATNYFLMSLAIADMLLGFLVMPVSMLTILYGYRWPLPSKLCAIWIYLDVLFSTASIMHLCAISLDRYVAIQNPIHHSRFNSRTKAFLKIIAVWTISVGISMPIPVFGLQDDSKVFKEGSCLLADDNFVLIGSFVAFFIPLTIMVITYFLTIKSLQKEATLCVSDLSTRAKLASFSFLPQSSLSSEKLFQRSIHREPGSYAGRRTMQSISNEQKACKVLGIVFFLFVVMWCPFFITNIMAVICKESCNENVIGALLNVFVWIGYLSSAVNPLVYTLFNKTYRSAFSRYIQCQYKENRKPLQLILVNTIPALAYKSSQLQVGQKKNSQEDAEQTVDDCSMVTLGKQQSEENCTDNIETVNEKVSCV
5-hydroxytryptamine receptor 4, sequence (O70528 whole entry): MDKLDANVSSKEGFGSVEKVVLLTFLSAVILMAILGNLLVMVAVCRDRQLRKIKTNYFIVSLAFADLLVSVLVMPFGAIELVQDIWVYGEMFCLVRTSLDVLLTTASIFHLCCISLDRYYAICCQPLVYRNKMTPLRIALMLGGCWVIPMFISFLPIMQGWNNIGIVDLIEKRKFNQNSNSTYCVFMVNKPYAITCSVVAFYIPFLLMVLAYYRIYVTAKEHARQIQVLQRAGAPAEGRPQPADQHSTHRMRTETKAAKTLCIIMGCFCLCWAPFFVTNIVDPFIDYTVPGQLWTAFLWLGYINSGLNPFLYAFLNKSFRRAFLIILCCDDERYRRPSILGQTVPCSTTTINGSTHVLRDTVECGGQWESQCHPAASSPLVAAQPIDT

**Q.** With COc1ccc(NC(=O)c2ccc(-c3ccc(-c4noc(C)n4)cc3C)cc2)cc1N1CCN(C)CC1 [SMR001230745] as the compound, how does the Ki [1] read?
**A.** 6.31 µM

**Q.** And the Ki [2]?
**A.** 0.0398 µM

**Q.** And the Ki [3]?
**A.** 0.631 µM

**Q.** What about the Ki [4] of the same compound?
**A.** > 10 µM

**Q.** What about the Ki [5] of the same compound?
**A.** 6.31 µM
